According to patent US20250243227A1, “IDURONIDASE STABILIZERS AND USES THEREOF” (Academia Sinica, priority 2022, published 2025):
Blank lines part the entries; values can stand above or below the molecule they belong to.

Legend:
[1] = target: T1, rh-α-IDUA in GM01391 fibroblasts (Homo sapiens (Human), UniProt P35475); assay: Cell-based rh-α-IDUA stabilization: intracellular IDUA activity in GM01391 fibroblasts; details: for enhancement of IDUA activity versus rh-α-IDUA alone / change of IDUA activity on co-treatment versus rh-α-IDUA alone: rh-α-IDUA 0.1 nM + compound 100 μM (100 aM/100 M [sic] in the source)
T1 sequence (P35475 26-653): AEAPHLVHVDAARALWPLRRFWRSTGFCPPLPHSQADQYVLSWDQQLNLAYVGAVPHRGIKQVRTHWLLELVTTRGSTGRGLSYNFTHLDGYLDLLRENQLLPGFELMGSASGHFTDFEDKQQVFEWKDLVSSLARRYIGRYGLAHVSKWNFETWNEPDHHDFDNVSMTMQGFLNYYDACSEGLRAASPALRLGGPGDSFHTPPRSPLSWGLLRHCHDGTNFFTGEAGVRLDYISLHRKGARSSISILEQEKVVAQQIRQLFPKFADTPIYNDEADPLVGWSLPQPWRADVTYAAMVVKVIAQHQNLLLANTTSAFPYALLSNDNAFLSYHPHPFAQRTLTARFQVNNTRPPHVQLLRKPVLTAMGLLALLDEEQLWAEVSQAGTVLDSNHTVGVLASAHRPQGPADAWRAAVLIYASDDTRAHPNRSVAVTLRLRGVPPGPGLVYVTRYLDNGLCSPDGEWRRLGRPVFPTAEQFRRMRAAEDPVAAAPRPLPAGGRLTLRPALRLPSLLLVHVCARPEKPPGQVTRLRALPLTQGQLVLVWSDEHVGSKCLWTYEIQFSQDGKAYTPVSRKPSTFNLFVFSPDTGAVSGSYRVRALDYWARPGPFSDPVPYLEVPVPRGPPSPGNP
Procedure: (§1) FIG. 1. The cell-based rh-α-IDUA stabilization study of the compounds of Example 1/rh-α-IDUA in GM01391 fibroblasts. (A) Preliminary cell-based screening of compounds of Example 1 by the co-treatment of rh-α-IDUA (0.1 nM) with 12 or 27b ([…]); (B) A dose-dependent experiment for 12, 27a, or 27b with 1 nM of rh-α-IDUA; (C) Co-treatment of 12 and rh-α-IDUA (1 or 0.1 nM) on IDUA activity; and (D) 12/rh-α-IDUA co-treatment on HS reduction in cells. Each bar represents the mean±SD of three determinations. *P<0.05; **P<0.01; ***P<0.001 compared to rh-α-IDUA alone, as determined by one-way ANOVA with Dunnett post-hoc analysis.
To this purpose, GM01391 fibroblasts were treated with a combination of rh-α-IDUA (0.1 nM) and compounds 12, and 27a-c ([…]); or with rh-α-IDUA for 1 day, followed by a 1-day wash-out. To measure the intracellular IDUA activity, the corresponding cells were harvested and lysed before the incubation with the fluorogenic substrate. Results are illustrated in FIG. 1.

[2] = target: recombinant human α-IDUA (rh-α-IDUA, Aldurazyme®) (Homo sapiens (Human), UniProt P35475); assay: IDUA inhibition assay (fluorogenic substrate 4MU-IdoA); assay type: biochemical; details: for IC50: apparent IC50 against rh-α-IDUA, 4-MU-IdoA substrate, pH 3.5
Chain of recombinant human α-IDUA (rh-α-IDUA, Aldurazyme®) (P35475 26-653): as above
Procedure: Compounds were mixed with recombinant human α-IDUA (rh-α-IDUA, Aldurazyme®, 1.2 nM as the final concentration) and the fluorogenic substrate, […] (4MU-IdoA; Cayman), at a final concentration of 100 μM in pH 3.5 buffer (50 mM NaOAc and 150 mM NaCl), then incubated in a 384-well microplate at 37° C. for 30 min. Stop solution (500 mM Na2CO3, pH 10.8) was added and fluorescence was read on a CLARIOstar® microplate reader (BMG LABTECH) at 355 nm excitation and 460 nm emission. Raw fluorescence counts were background subtracted, as defined by counts from substrate solution only. Inhibitory screening was performed and the active compounds were selected and further tested at lower concentration to determine their IC50 values and Ki values.
The compounds of Example 1 were evaluated on their inhibitory potential against rh-α-IDUA, and their apparent IC50 values were determined by using the fluorogenic substrates 4-methylumbelliferyl-α-iduronide (4-MU-IdoA) and results are shown in Table 1.

[3] = target: T1, rh-α-IDUA in GM01391 fibroblasts; assay: Cell-based rh-α-IDUA stabilization: intracellular IDUA activity in GM01391 fibroblasts; details: co-treatment with rh-α-IDUA; 1-day treatment followed by 8-day wash-out; data not shown
[4] = tested on: heparan sulfate (HS) in GM02846 fibroblasts; assay: Cell-based HS analysis (LC-MS/MS of HS disaccharides) in GM02846 fibroblasts; set-up: species or system human; details: combination with rh-α-IDUA
Text: (§2) FIG. 2. The cell-based rh-α-IDUA stabilization study of 12/rh-α-IDUA in GM02846 fibroblasts. (A) IDUA activity, and (B) the reduction of HS; Each bar represents the mean±SD of three determinations. *P<0.05; **P<0.01; ***P<0.001 compared to rh-α-IDUA alone, as determined by one-way ANOVA with Dunnett post-hoc analysis.
(§3) Generally, accumulation of GAGs could be observed in MPS patients due to the dysfunction of any lysosomal enzymes involved in the degradation of GAGs including IDUA associated with MPSI, which means the enhanced efficacy of protein drugs by the co-treatment with protein stabilizers could be evaluated more directly by the improved reduction of GAGs than the increased activity of MPS-related lysosomal enzymes. As a result, a robust method for quantitative detection of HS, one of the types of GAGs excessively stored in MPS I patients, was established by us for the evaluation of potential therapeutic effect of compound 12 in MPSI.
(§4) HS of the in situ treated fibroblasts were extracted and chemically cleaved to generate HS disaccharides as the released biomarker, which could be quantitatively measured via LC-MS/MS with a synthesized novel disaccharide by us as the internal standard. With this established method for cell-based HS analysis, the qualified CIdoA analogue 12 was further evaluated.

[5] = target: rh-α-IDUA in GM02846 fibroblasts (Homo sapiens (Human), UniProt P35475); assay: Cell-based rh-α-IDUA stabilization: IDUA activity in GM02846 fibroblasts; details: co-treatment with rh-α-IDUA
Chain of rh-α-IDUA in GM02846 fibroblasts (P35475 26-653): as above
Text: as §2, §4

[6] = tested on: heparan sulfate (HS) in GM01391 fibroblasts; assay: Cell-based HS analysis (LC-MS/MS of HS disaccharides) in GM01391 fibroblasts; set-up: species or system human; details: co-treatment with rh-α-IDUA
Procedure: as §1
as §3, with “MPSI. […]” for “MPSI.”

[7] = rh-α-IDUA 1 nM + compound 500 μM

Molecule: NCC[C@@H]1O[C@@H](C(=O)O)[C@@H](O)[C@H](O)[C@H]1O [Compound 12]
enhancement of IDUA activity versus rh-α-IDUA alone ([1]; 1 day, 1-day wash-out): 1.4 fold
IDUA activity with combined treatment versus rh-α-IDUA alone [1, 7]: three
IDUA activity, dose-dependence of co-treatment versus rh-α-IDUA alone ([1]; rh-α-IDUA 1 or 0.1 nM): enhanced by the 12/rh-α-IDUA co-treatment in a dose-dependent manner
Ki ([2]; against rh-α-IDUA): 4 µM
IC50 [2]: 6.7 µM
time course of enhancement of IDUA activity [3]: could be maintained
reduction of HS versus rh-α-IDUA alone [4]: significant reduction of HS
rh-α-IDUA activity on co-treatment [5]: dose-dependently enhanced
reduction of accumulated HS versus rh-α-IDUA alone [6]: statistically significantly improved reduction

Molecule: NCC[C@@H]1N[C@@H](C(=O)O)[C@@H](O)[C@H](O)[C@H]1O [Compound 23]
IC50 (μM), NI = no inhibition at 250 μM ([2]; 250 μM compound, rh-α-IDUA): NI^a (NI refers to less than 10% inhibition at 250 μM.)

B1: rh-α-IDUA: recombinant human α-iduronidase, enzyme replacement protein (Aldurazyme®) (protein, UniProt P35475 28-653, looked up)
Alpha-L-iduronidase: APHLVHVDAARALWPLRRFWRSTGFCPPLPHSQADQYVLSWDQQLNLAYVGAVPHRGIKQVRTHWLLELVTTRGSTGRGLSYNFTHLDGYLDLLRENQLLPGFELMGSASGHFTDFEDKQQVFEWKDLVSSLARRYIGRYGLAHVSKWNFETWNEPDHHDFDNVSMTMQGFLNYYDACSEGLRAASPALRLGGPGDSFHTPPRSPLSWGLLRHCHDGTNFFTGEAGVRLDYISLHRKGARSSISILEQEKVVAQQIRQLFPKFADTPIYNDEADPLVGWSLPQPWRADVTYAAMVVKVIAQHQNLLLANTTSAFPYALLSNDNAFLSYHPHPFAQRTLTARFQVNNTRPPHVQLLRKPVLTAMGLLALLDEEQLWAEVSQAGTVLDSNHTVGVLASAHRPQGPADAWRAAVLIYASDDTRAHPNRSVAVTLRLRGVPPGPGLVYVTRYLDNGLCSPDGEWRRLGRPVFPTAEQFRRMRAAEDPVAAAPRPLPAGGRLTLRPALRLPSLLLVHVCARPEKPPGQVTRLRALPLTQGQLVLVWSDEHVGSKCLWTYEIQFSQDGKAYTPVSRKPSTFNLFVFSPDTGAVSGSYRVRALDYWARPGPFSDPVPYLEVPVPRGPPSPGNP
IDUA activity after treatment with rh-α-IDUA alone ([1]; rh-α-IDUA 0.1 nM, 1 day, 1-day wash-out): dramatically increased

Next, values leading:

change of IDUA activity on co-treatment versus rh-α-IDUA alone ([1]; 1 day, 1-day wash-out): barely improved
IDUA activity on co-treatment at 500 μM [1, 7]: suppressed
IC50 [2]: 5.4 ± 0.5 µM
Molecule: O=C(Cc1ccc(OP(=O)(O)O)cc1)NCC[C@@H]1O[C@@H](C(=O)O)[C@@H](O)[C@H](O)[C@H]1O [Compound 27a]

enhancement of IDUA activity versus rh-α-IDUA alone ([1]; 1 day, 1-day wash-out): 1.6 fold
enhancement of IDUA activity at 500 μM [1, 7]: 1.7 fold
IC50 [2]: 4 ± 0.5 µM
Molecule: O=C(Cc1cccc(OP(=O)(O)O)c1)NCC[C@@H]1O[C@@H](C(=O)O)[C@@H](O)[C@H](O)[C@H]1O [Compound 27b]

change of IDUA activity on co-treatment versus rh-α-IDUA alone ([1]; 1 day, 1-day wash-out): moderate reduction of IDUA activity
IC50 [2]: 1 µM
Molecule: O=C(Cc1ccccc1OP(=O)(O)O)NCC[C@@H]1O[C@@H](C(=O)O)[C@@H](O)[C@H](O)[C@H]1O [Compound 27c]
